Patent US6602914B2, “Compounds and methods for the inhibition of the expression of VCAM-1” (AtheroGenics, Inc., priority 1997, dated 2003)

How the values were obtained:
ApoB/HepG2 = experiment: Lipid Screen & IC50 Determination Protocol: ApoB ELISA of HEPG2 media; assay type: cell-based, human; conditions: HEPG2, 24 hours; for ApoB/HepG2 % inhibition at [μM]: at 15 μM; for IC50: bare number = IC50, NE not defined in the patent, read-out: ApoB/HepG2 IC50 or % inhibition at [μM]: IC50
Protocol: HEPG2 cell was started in 10 ml of MEM, 10% FBS, 1 mM Sodium Pyruvate. The cells were incubated in a tissue culture incubator. The cells were split into 4×96-wells plate in MEM, 10% FBS, 1 mM Sodium Pyruvate and allowed to grow to about 50% confluency and then removed.
The cells were treated with the desired concentration of compounds in 100 μl DMEM, 1% RSA for 24 hours. The compounds are dissolved in DMSO.
On the same day, 4×96-wells NuncImmunoSorb plate is coated with 100 μl of mouse anti-human ApoB monoclonal 1D1 (1:1000 dilution in 1×PBS, pH 7.4). The coating is allowed overnight.
The coated plate is washed 3 times with 1×PBS, pH 7.4, −0.05% Tween 20. 100 μl of the standards is added to the selected wells. ApoB standards are prepared at 6.25, 3.12, 1.56, 0.78, 0.39 ng, and each concentration is done in triplicates. For samples:
90 μl of 1×PBS, pH 7.4, −0.05% Tween 20 is added to each well corresponding to the sample. 10 μl of media is transferred from the treated HEPG2 plates to the ApoB ELISA plate. The plate is incubated at room temperature for 2 hours, rocking gently.
Wash the coated plate 3× with 1×PBS, pH 7.4, −0.05% Tween 20. Add 100 μl of sheep anti-human ApoB polyclonal from Boehringer Mannheim. (1:2000 dilution in 1×PBS, pH 7.4, −0.05% Tween 20) from Boehringer Mannheim. Incubate at room temperature for 1 hour, rocking gently. Wash the coated plate 3× with 1×PBS, pH 7.4, −0.05% Tween 20. Add 100 μl of rabbit anti-sheep IgG (1:2000 dilution in 1×PBS, pH 7.4, −0.05% Tween 20). Incubate at room temperature for 1 hour, rocking gently. Wash the coated plate 3× with 1×PBS, pH 7.4, −0.05% Tween 20. Add 100 μl of substrate (10 ml of distilled water, 100 μl of TMB (10 mg/ml), and 1 μl of hydrogen peroxide). Allow color to emerge and stop reaction with 25 ul of 8N sulfuric acid. Wells are read with MicroPlate Reader @ […]. Graph accumulation of ApoB in media as a percentage of control for each sample and their concentration. A determination of IC50 is obtained from the graph.
The degree of inhibition of the compounds of formulas (I) and (II) was determined by the assays described in Examples 62-64.

VCAM-1 = VCAM-1 Assay: TNF-stimulated cells, cell-surface ELISA; assay type: cell-based; conditions: for IC50: bare number = IC50, NE not defined in the patent, read-out: VCAM-1 IC50 or % inhibition at [μM]: IC50; for VCAM-1 % inhibition at [μM]: at 50 μM
Protocol: Two to four confluent P150 plates are trypsinized and the cells transferred to a 50 mL conical centrifuge tube. The cells are pelleted, resuspended, and counted using the trypan blue exclusion method.
Cells are resuspended at a concentration of 36,000 cells/mL and 1 mL is aliquoted per well.
Cells are split into 24 well tissue culture plates. The cells in each well should be approximately 90-95% confluent by the following day. Cells should not be older than passage 8.
Compounds are initially screened at 50 μM and 10 μM. A 50 mM stock solution for each compound is prepared in culture medium. The stock solution is diluted to 5 mM and 1 mM. When 10 μL of the 5 mM solution is added to the well (1 mL medium/well), the final concentration will be 50 μM. Adding 10 μL of the 1 mM solution to the well will give a final concentration of 10 μM.
Compounds which will not go into solution in culture medium are resuspended in DMSO at a concentration of 25 mM. The stock solution is then diluted to the final concentration in culture medium. The old medium is aspirated and 1 mL of the new medium with the compound is added. For example, if the final concentration is 50 μM, the 2 μL of the 25 mM stock is added per mL of culture medium. The […] solution is diluted for lower concentrations.
The compounds are added to the plate (each compound is done in duplicate). One plate is done for VCAM expression and one plate is done for ICAM expression.
Immediately after the compounds are added, TNF is added to each well. 100 units/mL TNF is usually added to each well. Since each lot of TNF varies in the number of units, each new lot is titrated to determine the optimum concentration. Therefore this concentration will change. If 100 units/mL is bing used, dilute the TNF to 10 units/μL and add 10 μL to each well.
The plates are incubated at 37° C., 5% CO2 overnight (approximately 16 hours). The next day the plates are checked under the microscope to see if there are any visual signs of toxicity. Records are made of any cell death, debris, or morphology changes, as well as insoluble compounds (particulate or turbity).
In order to assess MCP-1, the media (500 μL) is saved and frozen at −70° C. Wash cells once with roughly 1 ml/well of Hanks Balance Salt Solution (HBSS) or PBS. Gently empty the wash solution and then tap the plate onto paper towels. Add either 250 μL/well of HBSS +5% FCCS to the plank (no primary antibody wells) or 250 μL/well of primary antibody diluted in HBSS +5% FCS. Incubate for 30 minutes at 37° C. Wash the wells twice with 0.5 mL/well HBSS or PBS and gently tap the plates onto paper towels after the last wash. Add 250 μL/well of HRP-conjugated second antibody diluted in HBSS +5% FCS to every well including the blank wells (no primary antibody). Incubate at 37° C. for 30 minutes. Wash the wells four times with 0.5 mL/well HBSS or PBS and gently tap the plates onto paper towels after the last wash. Add 250 μL/well of substrate solution. Incubate at room temperature in the dark until there is adequate color development (blue). Note the length of time incubation was performed (typically 15-30 minutes). Add 75 μL/well stopper solution (8N sulfuric acid), and read A450 nm.

Row | Compound | ApoB/HepG2 % inhibition at [μM] (ApoB/HepG2) [% at 15] | IC50 (VCAM-1) [µM] | IC50 (ApoB/HepG2) [µM] | VCAM-1 % inhibition at [μM] (VCAM-1) [% at 50]
1 | CC(C)(C)c1cc(SCc2ccc(CC(=O)O)cc2)cc(C(C)(C)C)c1O [2,6-di-tert-butyl-4-thio(4′(methyl)phenylacetic acid))phenol] | 7 | 80 |  | 
2 | CN(C)S(=O)(=O)c1ccc(CSc2cc(C(C)(C)C)c(O)c(C(C)(C)C)c2)cc1 [2,6-di-tert-butyl-4-thio(4′-methyl-N,N-dimethylbenzenesulfonamide)phenol] |  | 20 | 31 | 
3 | CC(C)(C)c1cc(SCc2ccc(CCO)cc2)cc(C(C)(C)C)c1O [2,6-di-tert-butyl-4-thio(4′-(methyl)phenylethyl alcohol))phenol] | 53 | 15 |  | 
4 | CC(C)(C)c1cc(SCc2cccc([N+](=O)[O-])c2)cc(C(C)(C)C)c1O [2,6-di-tert-butyl-4-thio(3′-nitrobenzyl)phenol] |  | 13 | 20 | 
5 | CC(C)(C)c1cc(SCc2ccc(C(F)(F)F)cc2)cc(C(C)(C)C)c1O [(2,6-di-tert-butyl4-thio(4′-(trifluoromethyl)benzyl)phenol] |  | 5 | 16 | 
6 | CN(C)Cc1ccc(CSc2cc(C(C)(C)C)c(O)c(C(C)(C)C)c2)o1 [2,6-di-tert-butyl-4-thio(5′-methyl-2′-((dimethylamino)methyl)furan)phenol] |  | 10 | 19 | 
7 | CC(C)(Sc1cc(C(C)(C)C)c(O)c(C(C)(C)C)c1)Sc1cc(C(C)(C)C)c(OC(=O)CCCC(=O)O)c(C(C)(C)C)c1 [Pentanedioic acid, mono[4-[[1-[[3,5-bis(1,1-dimethylethyl)-4-hydroxyphenyl]thio]-1-methylethyl]thio]-2,6-bis(1,1-dimethylethyl)phenyl] ester] | 70 | 8.7 |  | 
8 | CC(C)(C)c1cc(SCc2ccc([N+](=O)[O-])cc2[N+](=O)[O-])cc(C(C)(C)C)c1O [2,6-di-tert-butyl4-thio(2′,4′-dinitrobenzyl)phenol] |  | 8 | 32 | 
9 | Cc1ccc(CSc2cc(C(C)(C)C)c(O)c(C(C)(C)C)c2)cc1 [2,6-di-tert-butyl-4-thio(4′-methylbenzyl)phenol] |  | 75 | 22 | 
10 | CC(C)(Sc1cc(C(C)(C)C)c(O)c(C(C)(C)C)c1)Sc1cc(C(C)(C)C)c(OCC2OC2CO)c(C(C)(C)C)c1 (stereo not drawn) [Oxiranemethanol, 3-[[4-[[1-[[3,5-bis(1,1-dimethylethyl)-4-hydroxyphenyl]thio]-1-methylethyl]thio]-2,6-bis(1,1-dimethylethyl)phenoxy]methyl]-] |  | > 100 |  | 
11 | CC(C)(C)c1cc(SCc2ccc(C(=O)O)o2)cc(C(C)(C)C)c1O [2,6-di-tert-butyn4-thio((2′-furancarboxylic acid)-5-methyl)phenol] |  | 40 |  | 
12 | CC(C)(C)c1cc(SCc2ccc([N+](=O)[O-])cc2)cc(C(C)(C)C)c1O [2,6-di-tert-butyl4-thio(4′-nitrobenzyl)phenol] |  | 10 | 27 | 
13 | CC(C)(C)c1cc(SCCCS(=O)(=O)O)cc(C(C)(C)C)c1O [2,6-di-tert-butyl-4-thio(3′-propanesulfonic acid)phenol] |  |  |  | 25
14 | CC(C)(C)c1cc(S(=O)(=O)Cc2ccc([N+](=O)[O-])cc2)cc(C(C)(C)C)c1O [2,6-di-tert-butyl4-(sulfonyl-(4′-nitrobenzyl))phenol] |  | 40 | 25 | 
15 | CC(C)(Sc1cc(C(C)(C)C)c(O)c(C(C)(C)C)c1)Sc1cc(C(C)(C)C)c(OC(=O)CCC(=O)O)c(C(C)(C)C)c1 [Butanedioic acid, mono [4-[[1-[[3,5-bis(1,1-dimethylethyl)-4-hydroxyphenyl]thio]-1-methylethyl]thio]2,6-bis(1,1-dimethylethyl)phenyl]ester] | 65 | 5.6 |  | 
16 | CC(C)(C)c1cc(SCc2ccc(F)cc2)cc(C(C)(C)C)c1O [2,6-di-tert-butyl-4-thio(4′-fluorobenzyl)phenol] |  | 35 | 30 | 
17 | CN(C)CCCSc1cc(C(C)(C)C)c(O)c(C(C)(C)C)c1 [2,6-di-tert-butyl-4-thio(3′-(dimethylamino)propyl))phenol] |  |  |  | 30
18 | CC(=O)OC(C)(C)CSc1cc(C(C)(C)C)c(O)c(C(C)(C)C)c1 [2,6-di-tert-butyl-4-thio(2′-acetoxy,2′-methylpropyl)phenol] |  | 50 |  | 
19 | 2,6-di-tert-butyl-4-thio(3′,5′-ditert-butyl,4′-hydroxy butanedioic acid ester)phenol |  | 6 |  | 
20 | CC(C)(Sc1cc(C(C)(C)C)c(O)c(C(C)(C)C)c1)Sc1cc(C(C)(C)C)c(OCC(O)C2CO2)c(C(C)(C)C)c1 (stereo not drawn) [Oxiranemethanol, α-[[4-[[1-[[3,5-bis(1,1-dimethylethyl)-4-hydroxyphenyl]thio]-1-methylethyl]thio]-2,6-bis(1,1-dimethylethyl)phenoxy]methyl]-] |  | 45 |  | 
21 | CC1(C)OC2OC(COc3c(C(C)(C)C)cc(SC(C)(C)Sc4cc(C(C)(C)C)c(O)c(C(C)(C)C)c4)cc3C(C)(C)C)C3OC(C)(C)OC3C2O1 [α-D-Galactopyranose, 60-[4-[[1-[[3,5-bis(1,1-dimethylethyl)-4-hydroxyphenyl]thio]-1-methylethyl]thio]-2,6-bis(1,1-dimethylethyl)phenyl]-1,2:3,4-bis-O-(1-methylethylidene)] |  | 45 |  | 
22 | CC(C)(Sc1cc(C(C)(C)C)c(O)c(C(C)(C)C)c1)Sc1cc(C(C)(C)C)c(OCc2ccc([N+](=O)[O-])cc2)c(C(C)(C)C)c1 [Phenol, 4-[[1-[3,5-bis(1,1-dimethylethyl)-4-[(4-nitrophenyl)methoxy]phenyl]thio]-1-methylethyl]thio]2,6-bis(1,1-dimethylethyl)-] | 17 |  |  | 30
23 | CC(=O)Oc1ccc(CSc2cc(C(C)(C)C)c(O)c(C(C)(C)C)c2)cc1 [2,6-di-tert-butyl-4-thio(4′-acetoxybenzyl)phenol] |  | 18 | 40 | 
24 | CC(C)(C)c1cc(SCCCC(=O)O)cc(C(C)(C)C)c1O [2,6-di-tert-butyl-4-thio(butanoic acid)phenol] |  | 75 |  | 
